Values quoted from earlier work as cited in Sander's compilation of Henry's law constants (doi:10.1093/bja/45.3.294).

Experiments:
[1] = Henry solubility constant Hcp at 298.15 K (mol/(m3 Pa)); details: reference: Allott et al. (1973); cited value
[2] = Henry solubility constant Hcp at 310 K (mol/(m3 Pa)); details: reference: Allott et al. (1973); cited value

| SMILES | Henry solubility constant Hcp [1] | Henry solubility constant Hcp at 310 K [2] |
| --- | --- | --- |
| CCCl [chloroethane] | 0.00073 |  |
| FC(F)OC(F)(F)C(F)Cl (stereo not given) [2-chloro-1,1,2-trifluoroethyl difluoromethyl ether] |  | 0.0003 |
| FC(F)(F)C(Cl)Br (stereo not given) [1-bromo-1-chloro-2,2,2-trifluoroethane] | 0.00053 |  |
| C=COC=C [divinyl ether] |  | 0.00054 |
| C=COCC(F)(F)F [(2,2,2-trifluoroethoxy)-ethene] | 0.00055 |  |
| ClC=C(Cl)Cl [trichloroethene] | 0.0011 |  |
| COC(F)(F)C(Cl)Cl [2,2-dichloro-1,1-difluoro-1-methoxyethane] | 0.003 |  |
| C1CC1 [cyclopropane] | 0.00011 |  |
| FC(Br)C(F)(F)F (stereo not given) [1-bromo-1,2,2,2-tetrafluoroethane] | 0.00017 |  |
| C=C [ethene] | 4.6e-05 |  |
| [Xe] [xenon] | 4.5e-05 |  |
| FC(F)OC(Cl)C(F)(F)F (stereo not given) [1-chloro-2,2,2-trifluoroethyl difluoromethyl ether] |  | 0.00024 |
| [N-]=[N+]=O [dinitrogen monoxide] | 0.00025 |  |
| [Kr] [krypton] | 2.5e-05 |  |
| CCOCC [diethyl ether] | 0.0096 |  |
